# Results as given in BindingDB's records for doi:10.7270/Q28G8J4C (Broad Institute, 2009).
# Biological target: T1, POsterior Segregation (Caenorhabditis elegans, UniProt G5EF15)
# T1 sequence (G5EF15 whole entry): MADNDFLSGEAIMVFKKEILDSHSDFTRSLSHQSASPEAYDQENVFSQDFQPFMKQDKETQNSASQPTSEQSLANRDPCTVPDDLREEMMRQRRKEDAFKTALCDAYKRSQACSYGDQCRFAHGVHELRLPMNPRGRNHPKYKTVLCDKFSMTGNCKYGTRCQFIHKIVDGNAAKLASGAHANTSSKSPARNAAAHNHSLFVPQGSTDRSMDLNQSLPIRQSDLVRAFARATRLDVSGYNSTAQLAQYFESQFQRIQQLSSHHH
# Assay: disruptors of C. elegans POS-1 RNA interaction – biochemical, fluorescence polarization, dose response (AID 1964)
row,Compound,EC50 [µM]
1,"CC1(C)CC(=O)C2=C(C1)OC(=N)C(C#N)C2c1ccccc1OC(=O)N1CCOCC1 (centres undefined) [2-(2-amino-3-cyano-7,7-dimethyl-5-oxo-5,6,7,8-tetrahydro-4H-chromen-4-yl)phenyl morpholine-4-carboxylate]",> 300
2,CS(=O)(=O)Nc1nc2n(n1)C(c1ccccc1)CC(c1ccc(Br)cc1)=N2 (centres undefined),> 300
3,C=c1cc(O)c(CN(C)C)c2oc(=Cc3ccco3)c(O)c12 [(2Z)-7-[(dimethylamino)methyl]-2-(furan-2-ylmethylidene)-6-hydroxy-4-methyl-1-benzofuran-3-one],32.1
4,"Cc1nnc(N2C(=O)C(=O)C(C(=O)c3ccco3)C2c2ccc(F)cc2)s1 (centres undefined) [2-(4-fluorophenyl)-3-(furan-2-carbonyl)-4-hydroxy-1-(5-methyl-1,3,4-thiadiazol-2-yl)-2H-pyrrol-5-one]",34.2
5,O=C1Nc2ccccc2C1=NNc1ccccc1 [3-(phenylhydrazo)-2-indolone],7.37
6,"N#CC1C(=N)OC2=C(C(=O)CC(c3ccco3)C2)C1c1ccc(OCc2c(F)cccc2Cl)cc1 (centres undefined) [2-azanyl-4-[4-[(2-chloranyl-6-fluoranyl-phenyl)methoxy]phenyl]-7-(furan-2-yl)-5-oxidanylidene-4,6,7,8-tetrahydrochromene-3-carbonitrile]",> 300
7,"N#CCC(=N)C(C#N)C#N [1,1,3-tricyano-2-amino-1-propene]",54.9
8,"C=CCOc1cccc(C2C(C(=O)c3ccc(C)o3)C(=O)C(=O)N2c2nnc(C)s2)c1 (centres undefined) [3-(5-methylfuran-2-yl)carbonyl-1-(5-methyl-1,3,4-thiadiazol-2-yl)-4-oxidanyl-2-(3-prop-2-enoxyphenyl)-2H-pyrrol-5-one]",> 300
9,CN(C)CCCNC=C1C(=O)NC(=O)N(CCc2ccc(F)cc2)C1=O [(5E)-5-[[3-(dimethylamino)propylamino]methylene]-1-[2-(4-fluorophenyl)ethyl]barbituric acid],> 300
10,C=c1c(C(=O)OC)c(O)c(=Cc2cccs2)n1-c1ccc(Cl)cc1 [(5E)-1-(4-chlorophenyl)-2-methyl-4-oxo-5-(thiophen-2-ylmethylidene)-3-pyrrolecarboxylic acid methyl ester],> 300
11,Cc1cccc(NNC2=c3cc(Br)ccc3=NC2=O)c1 [5-bromo-3-[2-(3-methylphenyl)hydrazinyl]indol-2-one],68.3
12,Cc1ccc2c(c1)=C(NNc1ccccc1C)C(=O)N=2,> 300
13,"COc1cc(C2NC(=S)N=C(C)C2C(=O)OC(C)C)ccc1OC(C)C (centres undefined) [4-(3-methoxy-4-propan-2-yloxyphenyl)-6-methyl-2-sulfanylidene-3,4-dihydro-1H-pyrimidine-5-carboxylic acid propan-2-yl ester]",> 300
14,COc1ccc(OC)c(NC=C2C(=O)NC(=S)N(Cc3ccccc3)C2=O)c1,> 300
15,"CCN(CC)CCN1C(=O)C(=O)C(C(=O)c2cc3cccc(OC)c3o2)C1c1ccc(F)cc1 (centres undefined) [1-(2-Diethylamino-ethyl)-5-(4-fluoro-phenyl)-3-hydroxy-4-(7-methoxy-benzofuran-2-carbonyl)-1,5-dihydr o-pyrrol-2-one]",> 300
16,"N#CC1C(=N)C2=C(N3CCCCC3)CCCC2C1(C#N)C#N (centres undefined) [3-Amino-4-piperidin-1-yl-5,6,7,7a-tetrahydro-indene-1,1,2-tricarbonitrile]",89.4
17,O=C1N=C(O)C(C2=c3cc([N+](=O)[O-])ccc3=NC2=O)S1 (centres undefined) [MLS001163276],13.2
18,"CCCN1CCC2=C(C#N)C(=N)C(C#N)(C#N)C(c3cc(OC)ccc3OC)C2C1 (centres undefined) [6-Amino-8-(2,5-dimethoxy-phenyl)-2-propyl-2,3,8,8a-tetrahydro-1H-isoquinoline-5,7,7-tricarbonitrile]",27.9
19,"COc1ccc(C2C(C(=O)c3cccs3)C(=O)C(=O)N2c2nnc(C)s2)cc1OC (centres undefined) [2-(3,4-dimethoxyphenyl)-1-(5-methyl-1,3,4-thiadiazol-2-yl)-4-oxidanyl-3-thiophen-2-ylcarbonyl-2H-pyrrol-5-one]",7.2
